Measured values: patent US4160839A, “Carbamyltriazole insecticides” (priority 1976, dated 1979)

Columns and labels:
[1] = test system: Mexican bean beetle (MBB) larvae; assay: Spray test, Mexican bean beetle (MBB) larvae on bean leaves; assay type: in vivo; conditions: approx. 48 h after spraying
Procedure: (§1) Three 5 oz paper cups containing Henderson dwarf lima bean plants and one 5 oz paper cup containing Orange Gem nasturtiums, all growing in vermiculite, are placed on a turntable and sprayed to thorough wetness with 25 ml of a solution of the candidate chemical at the appropriate concentration. Nasturtiums were already infested with 50-100 bean aphids (BA). A bean plant in one paper cup was already infested with 50-100 two-spotted mites (TSM). Leaves from the two remaining bean plants are removed following spraying and placed in disposable petri dishes with 5 southern armyworm (SA) larvae in one petri dish, and 5 Mexican bean beetle (MBB) larvae in the other petri dish. The rating is done approximately 48 hours after spraying as follows:
(§2) So as to obtain more meaningful results, all tests are performed at the same time of day, whenever possible, usually in the forenoon. Temperature,illumination and humidity are the same in all tests. Atmospheric pressure is not controlled.
(§3) Results obtained with the novel insecticides of this invention at various concentrations of active chemical are tabulated below. The ratings given are for averages of three or more replicates. The oral lethal dose for 50 percent kill of laboratory rats is also recorded in the table. In conducting the toxicity tests on rats, 0.01 g of active chemical per ml in corn oil is employed as an additive to the diet of the animals.

[2] = test system: southern armyworm (SA) larvae; assay: Spray test, southern armyworm (SA) larvae on bean leaves; assay type: in vivo; conditions: approx. 48 h after spraying
Procedure: as §1, §2, §3

bean aphids (BA) = assay: Spray test, bean aphids (BA) on nasturtiums; assay type: in vivo; conditions: approx. 48 h after spraying
Procedure: as §1, §2, §3

two-spotted mites (TSM) = assay: Spray test, two-spotted mites (TSM) on bean plants; assay type: in vivo; conditions: approx. 48 h after spraying
Procedure: as §1, §2, §3

[3] = test system: Southern Corn Rootworm (SCR); assay: Southern Corn Rootworm (SCR) soil treatment test, root feeding damage on corn; assay type: in vivo; parameters: scale not given here; conditions: nine days after treatment
Procedure: Three 5 oz paper cups planted each with one kernel of DeKalb XL-361 corn are treated two days after planting with 10 ml of a 125 ppm solution of the candidate compound. Compounds with high efficacy are treated at lower concentrations. The experiment is a 4×5 factorial in a randomized complete block design with three replications. The tests are evaluated nine days after treatment. The roots are inspected under a dissecting microscope and rated as follows:
as §2, §3

[4] = Oral toxicity test on laboratory rats; conditions: rat, in vivo, in corn oil as additive to the diet, read-out: LD50 (oral lethal dose for 50 percent kill of laboratory rats)
Procedure: as §3

C=C(Br)CSc1nc(C2CC2)nn1C(=O)N(C)C
MBB rating (larvae dead) ([1]; 500 ppm): 2 (26-50% larvae dead) | SA rating (larvae dead) ([2]; 500 ppm): 0 (no larvae dead) | BA rating (dead) (bean aphids (BA); 4 ppm): 0 (none dead) | BA rating (dead) (bean aphids (BA); 8 ppm): 2 (26-50% dead) | BA rating (dead) (bean aphids (BA); 15 ppm): 4 (76-99% dead) | BA rating (dead) (bean aphids (BA); 31 ppm): 5 (100% dead) | BA rating (dead) (bean aphids (BA); 62 ppm): 5 (100% dead) | BA rating (dead) (bean aphids (BA); 125 ppm): 5 (100% dead) | BA rating (dead) (bean aphids (BA); 250 ppm): 5 (100% dead) | BA rating (dead) (bean aphids (BA); 500 ppm): 5 (100% dead) | TSM rating (dead adults) (two-spotted mites (TSM); 500 ppm): 2 (26-50% dead adults) | SCR Rating (root feeding damage) ([3]; 50 ppm): 0.3 | SCR Rating (root feeding damage) ([3]; 100 ppm): 4.3

C=C(Br)CSc1nc(C(C)(C)C)nn1C(=O)N(C)C
MBB rating (larvae dead) ([1]; 500 ppm): 2 (26-50% larvae dead) | SA rating (larvae dead) ([2]; 500 ppm): 0 (no larvae dead) | BA rating (dead) (bean aphids (BA); 4 ppm): 4 (76-99% dead) | BA rating (dead) (bean aphids (BA); 8 ppm): 4 (76-99% dead) | BA rating (dead) (bean aphids (BA); 15 ppm): 5 (100% dead) | BA rating (dead) (bean aphids (BA); 31 ppm): 5 (100% dead) | BA rating (dead) (bean aphids (BA); 62 ppm): 5 (100% dead) | BA rating (dead) (bean aphids (BA); 125 ppm): 5 (100% dead) | BA rating (dead) (bean aphids (BA); 250 ppm): 5 (100% dead) | BA rating (dead) (bean aphids (BA); 500 ppm): 5 (100% dead) | TSM rating (dead adults) (two-spotted mites (TSM); 15 ppm): 0 (no dead adults) | TSM rating (dead adults) (two-spotted mites (TSM); 31 ppm): 0 (no dead adults) | TSM rating (dead adults) (two-spotted mites (TSM); 62 ppm): 0 (no dead adults) | TSM rating (dead adults) (two-spotted mites (TSM); 125 ppm): 0 (no dead adults) | TSM rating (dead adults) (two-spotted mites (TSM); 250 ppm): 0 (no dead adults) | TSM rating (dead adults) (two-spotted mites (TSM); 500 ppm): 4 (76-99% dead adults)

C=CC(C)Sc1nc(C(C)(C)C)nn1C(=O)N(C)C (centres unmarked) [R=1-methylallyl, R'=tert.butyl]
MBB rating (larvae dead) ([1]; 15 ppm): 0 (no larvae dead) | MBB rating (larvae dead) ([1]; 31 ppm): 0 (no larvae dead) | MBB rating (larvae dead) ([1]; 62 ppm): 0 (no larvae dead) | MBB rating (larvae dead) ([1]; 125 ppm): 1 (1 -25% larvae dead) | MBB rating (larvae dead) ([1]; 250 ppm): 1 (1 -25% larvae dead) | MBB rating (larvae dead) ([1]; 500 ppm): 5 (100% larvae dead) | SA rating (larvae dead) ([2]; 15 ppm): 0 (no larvae dead) | SA rating (larvae dead) ([2]; 31 ppm): 0 (no larvae dead) | SA rating (larvae dead) ([2]; 62 ppm): 0 (no larvae dead) | SA rating (larvae dead) ([2]; 125 ppm): 0 (no larvae dead) | SA rating (larvae dead) ([2]; 250 ppm): 0 (no larvae dead) | SA rating (larvae dead) ([2]; 500 ppm): 4 (76-99% larvae dead) | BA rating (dead) (bean aphids (BA); 15 ppm): 5 (100% dead) | BA rating (dead) (bean aphids (BA); 31 ppm): 5 (100% dead) | BA rating (dead) (bean aphids (BA); 62 ppm): 5 (100% dead) | BA rating (dead) (bean aphids (BA); 125 ppm): 5 (100% dead) | BA rating (dead) (bean aphids (BA); 250 ppm): 5 (100% dead) | BA rating (dead) (bean aphids (BA); 500 ppm): 5 (100% dead) | TSM rating (dead adults) (two-spotted mites (TSM); 500 ppm): 0 (no dead adults)

CN(C)C(=O)n1nc(C(C)(C)C)nc1SCC(Cl)=C(Cl)Cl [R=2,3,3-trichloro-allyl, R'=tert.butyl]
MBB rating (larvae dead) ([1]; 500 ppm): 0 (no larvae dead) | SA rating (larvae dead) ([2]; 500 ppm): 0 (no larvae dead) | BA rating (dead) (bean aphids (BA); 2 ppm): 3 (51-75% dead) | BA rating (dead) (bean aphids (BA); 4 ppm): 3 (51-75% dead) | BA rating (dead) (bean aphids (BA); 8 ppm): 4 (76-99% dead) | BA rating (dead) (bean aphids (BA); 15 ppm): 5 (100% dead) | BA rating (dead) (bean aphids (BA); 31 ppm): 5 (100% dead) | BA rating (dead) (bean aphids (BA); 62 ppm): 5 (100% dead) | BA rating (dead) (bean aphids (BA); 125 ppm): 5 (100% dead) | BA rating (dead) (bean aphids (BA); 250 ppm): 5 (100% dead) | BA rating (dead) (bean aphids (BA); 500 ppm): 4 (76-99% dead) | TSM rating (dead adults) (two-spotted mites (TSM); 500 ppm): 0 (no dead adults)

C=C(Cl)CSc1nc(C(C)(C)C)nn1C(=O)N(C)C [R=2-chloroallyl, R'=tert.butyl]
MBB rating (larvae dead) ([1]; 500 ppm): 2 (26-50% larvae dead) | SA rating (larvae dead) ([2]; 500 ppm): 0 (no larvae dead) | BA rating (dead) (bean aphids (BA); 2 ppm): 4 (76-99% dead) | BA rating (dead) (bean aphids (BA); 4 ppm): 4 (76-99% dead) | BA rating (dead) (bean aphids (BA); 8 ppm): 4 (76-99% dead) | BA rating (dead) (bean aphids (BA); 15 ppm): 5 (100% dead) | BA rating (dead) (bean aphids (BA); 31 ppm): 5 (100% dead) | BA rating (dead) (bean aphids (BA); 62 ppm): 5 (100% dead) | BA rating (dead) (bean aphids (BA); 125 ppm): 5 (100% dead) | BA rating (dead) (bean aphids (BA); 250 ppm): 5 (100% dead) | BA rating (dead) (bean aphids (BA); 500 ppm): 5 (100% dead) | TSM rating (dead adults) (two-spotted mites (TSM); 500 ppm): 0 (no dead adults)

C=C(C)CSc1nc(C(C)(C)C)nn1C(=O)N(C)C [R=2-methylallyl, R'=tert.butyl]
MBB rating (larvae dead) ([1]; 500 ppm): 2 (26-50% larvae dead) | SA rating (larvae dead) ([2]; 500 ppm): 0 (no larvae dead) | BA rating (dead) (bean aphids (BA); 2 ppm): 1 (1-25% dead) | BA rating (dead) (bean aphids (BA); 4 ppm): 4 (76-99% dead) | BA rating (dead) (bean aphids (BA); 8 ppm): 4 (76-99% dead) | BA rating (dead) (bean aphids (BA); 15 ppm): 5 (100% dead) | BA rating (dead) (bean aphids (BA); 31 ppm): 5 (100% dead) | BA rating (dead) (bean aphids (BA); 62 ppm): 5 (100% dead) | BA rating (dead) (bean aphids (BA); 125 ppm): 5 (100% dead) | BA rating (dead) (bean aphids (BA); 250 ppm): 5 (100% dead) | BA rating (dead) (bean aphids (BA); 500 ppm): 5 (100% dead) | TSM rating (dead adults) (two-spotted mites (TSM); 500 ppm): 0 (no dead adults) | SCR Rating (root feeding damage) ([3]; 100 ppm): 1.3

C=CCSc1nc(C2CC2)nn1C(=O)N(C)C [R=2-propenyl (allyl), R'=cyclopropyl]
MBB rating (larvae dead) ([1]; 15 ppm): 0 (no larvae dead) | MBB rating (larvae dead) ([1]; 31 ppm): 0 (no larvae dead) | MBB rating (larvae dead) ([1]; 62 ppm): 0 (no larvae dead) | MBB rating (larvae dead) ([1]; 125 ppm): 2 (26-50% larvae dead) | MBB rating (larvae dead) ([1]; 250 ppm): 5 (100% larvae dead) | MBB rating (larvae dead) ([1]; 500 ppm): 5 (100% larvae dead) | SA rating (larvae dead) ([2]; 15 ppm): 0 (no larvae dead) | SA rating (larvae dead) ([2]; 31 ppm): 0 (no larvae dead) | SA rating (larvae dead) ([2]; 62 ppm): 0 (no larvae dead) | SA rating (larvae dead) ([2]; 125 ppm): 0 (no larvae dead) | SA rating (larvae dead) ([2]; 250 ppm): 0 (no larvae dead) | SA rating (larvae dead) ([2]; 500 ppm): 5 (100% larvae dead) | BA rating (dead) (bean aphids (BA); 2 ppm): 4 (76-99% dead) | BA rating (dead) (bean aphids (BA); 4 ppm): 5 (100% dead) | BA rating (dead) (bean aphids (BA); 8 ppm): 5 (100% dead) | BA rating (dead) (bean aphids (BA); 15 ppm): 5 (100% dead) | BA rating (dead) (bean aphids (BA); 31 ppm): 5 (100% dead) | BA rating (dead) (bean aphids (BA); 62 ppm): 5 (100% dead) | BA rating (dead) (bean aphids (BA); 125 ppm): 5 (100% dead) | BA rating (dead) (bean aphids (BA); 250 ppm): 5 (100% dead) | BA rating (dead) (bean aphids (BA); 500 ppm): 5 (100% dead) | TSM rating (dead adults) (two-spotted mites (TSM); 15 ppm): 0 (no dead adults) | TSM rating (dead adults) (two-spotted mites (TSM); 31 ppm): 0 (no dead adults) | TSM rating (dead adults) (two-spotted mites (TSM); 62 ppm): 3 (51-75% dead adults) | TSM rating (dead adults) (two-spotted mites (TSM); 125 ppm): 5 (100% dead adults) | TSM rating (dead adults) (two-spotted mites (TSM); 250 ppm): 5 (100% dead adults) | TSM rating (dead adults) (two-spotted mites (TSM); 500 ppm): 5 (100% dead adults) | SCR Rating (root feeding damage) ([3]; 3 ppm): 3.0 | SCR Rating (root feeding damage) ([3]; 6 ppm): 2.5 | SCR Rating (root feeding damage) ([3]; 12 ppm): 2.5 | SCR Rating (root feeding damage) ([3]; 25 ppm): 3.0 | SCR Rating (root feeding damage) ([3]; 50 ppm): 3.5 | LD50 [4]: 5 to 10 mg/kg

C#CCSc1nc(CCC)nn1C(=O)N(C)C [R=2-propynyl, R'=propyl]
MBB rating (larvae dead) ([1]; 15 ppm): 0 (no larvae dead) | MBB rating (larvae dead) ([1]; 31 ppm): 1 (1 -25% larvae dead) | MBB rating (larvae dead) ([1]; 62 ppm): 3 (51-75% larvae dead) | MBB rating (larvae dead) ([1]; 125 ppm): 5 (100% larvae dead) | MBB rating (larvae dead) ([1]; 250 ppm): 5 (100% larvae dead) | MBB rating (larvae dead) ([1]; 500 ppm): 5 (100% larvae dead) | SA rating (larvae dead) ([2]; 15 ppm): 0 (no larvae dead) | SA rating (larvae dead) ([2]; 31 ppm): 0 (no larvae dead) | SA rating (larvae dead) ([2]; 62 ppm): 0 (no larvae dead) | SA rating (larvae dead) ([2]; 125 ppm): 0 (no larvae dead) | SA rating (larvae dead) ([2]; 250 ppm): 0 (no larvae dead) | SA rating (larvae dead) ([2]; 500 ppm): 5 (100% larvae dead) | BA rating (dead) (bean aphids (BA); 2 ppm): 0 (none dead) | BA rating (dead) (bean aphids (BA); 4 ppm): 0 (none dead) | BA rating (dead) (bean aphids (BA); 8 ppm): 1 (1-25% dead) | BA rating (dead) (bean aphids (BA); 15 ppm): 5 (100% dead) | BA rating (dead) (bean aphids (BA); 31 ppm): 5 (100% dead) | BA rating (dead) (bean aphids (BA); 62 ppm): 5 (100% dead) | BA rating (dead) (bean aphids (BA); 125 ppm): 5 (100% dead) | BA rating (dead) (bean aphids (BA); 250 ppm): 5 (100% dead) | BA rating (dead) (bean aphids (BA); 500 ppm): 5 (100% dead) | TSM rating (dead adults) (two-spotted mites (TSM); 500 ppm): 0 (no dead adults) | SCR Rating (root feeding damage) ([3]; 25 ppm): 1.3 | SCR Rating (root feeding damage) ([3]; 50 ppm): 2.7 | SCR Rating (root feeding damage) ([3]; 100 ppm): 3.7
